Reference: patent US20130331427A1, “METHODS OF STIMULATING CELLULAR GROWTH, SYNAPTIC, REMODELING AND CONSOLIDATION OF LONG-TERM MEMORY” (Blanchette Rockefeller Neuroscience Institute, priority 2007, published 2013)
“Also recorded” adds a separate entry of the source.

Key:
[1] = test system: sAPP secretion; experiment: sAPP secretion with bryostatin-1; assay type: cell-based; conditions: 0.1 nM
Description: Of particular interest are macrocyclic lactones (i.e. bryostatin class and neristatin class) that act to stimulate PKC. […] Bryostatin is currently in clinical trials as an anti-cancer agent. The bryostatins are known to bind to the regulatory domain of PKC and to activate the enzyme. […] (See, for example, WO 97/43268; incorporated herein by reference in its entirety).

[2] = test system: Hermissenda Crassicornis; experiment: Pavlovian conditioning of Hermissenda, memory retention; assay type: in vivo
Method: Specimens of Hermissenda Crassicornis were maintained in artificial sea water (ASW) at 15° for three days in perforated 50-ml conical centrifuge tubes before starting experiments. […] For selected experiments lactacysteine (10 μM) or anisomycin was added to the ASW.
Pavlovian conditioning of Hermissenda involves repeated pairings of a neutral stimulus, light, with an unconditioned stimulus, orbital shaking. (See, Lederhendler et al. (24) and Epstein et al. (6)). A rotation/shaking stimulus excites the statocyst hair cells and thereby elicits an unconditioned response: a brisk contraction of the muscular undersurface called a foot, accompanied by adherence or “clinging” to the surface that supports the foot. Before conditioning, light elicits a weakly positive phototaxis accompanied by lengthening of the foot. After sufficient light-rotation pairings, light no longer elicits phototaxis, but instead elicits a new response (24): the “clinging” and foot shortening previously elicited only by the unconditional stimulus (FIG. 1). Thus, the meaning of the unconditioned stimulus, rotation or orbital shaking, has been transferred to the conditioned stimulus and is manifested by a light-elicited foot contraction—a negative change of foot length. This conditioned response to light can last for weeks, is not produced by randomized light and rotation, is stimulus-specific, and shares the other defining characteristics of mammalian Pavlovian Conditioning.
Pavlovian conditioning of Hermissenda has well-defined training parameters that produce progressively longer-lasting retention of the learned conditioned response. Two training events (2 TE) of paired light and orbital shaking (see “Methods”), for example, induce a learned conditioned response (light-elicited foot contraction or shortening) that persists without drug treatment for approximately 7 minutes. Four to six training events (4-6 TE) induce a conditioned response that persists up to several hours, but disappears approximately by 1 day after training. Nine TE produces long-term associative memory lasting many days and often up to two weeks.
All animals were tested with the CS alone at 4 h, then at 24-h intervals.

[3] = test system: PKC; experiment: PKC activity (histone phosphorylation) in Hermissenda nervous systems; assay type: in vivo
Method: (§1) Cells were homogenized by sonication (5 sec, 25 W) in 100 μl of 100 mM Tris-HCL pH 7.4 buffer containing 1 mM EGTA, 1 mM PMSF, and 50 mM NaF. Homogenate was transferred to a polyallomer centrifuge tube and was centrifuged at 100,000×g for 10 min at 4°. The supernatant was removed and immediately frozen on dry ice. The particulate fraction was resuspended by sonication in 100 μl of the same buffer and stored at −80°. To measure PKC, 10 μl of cytosol or particulate fraction was incubated for 15 min at 37° in the presence of 10 μM histones, 4.89 mM CaCl2, 1.2 μg/μl phosphatidyl-L-serine, 0.18 μg/μl 1.2-dioctanoyl-sn-glycerol, 10 mM MgCl2, 20 mM HEPES (pH 7.4), 0-8 mM EDTA, 4 mM EGTA, 4% glycerol, 8 μg/ml aprotinin, 8 μg/ml leupeptin, and 2 mM benzamidine. 0.5 μCi [γ^32-P]ATP was added and ^32P-phosphoprotein formation was measured by adsorption onto phosphocellulose as described previously (25). This assay was used with slight adjustments for either Hermissenda nervous system homogenates or cultured mammalian neuron homogenates.
Histone phosphorylation (See “Methods”) in isolated circumesophageal nervous systems was then measured in the cytosol fraction. […] (FIG. 12, 13).

[4] = test system: PKC; experiment: PKC activity in cultured rat hippocampal H19-7/IGF-IR cells; assay type: cell-based
Method: as §1
Rat hippocampal H19-7/IGF-IR cells (ATCC) were plated onto poly-L-lysine coated plates and grown at 35° in DMEM/10% FCS for several days until approx. 50% coverage was obtained. The cells were then induced to differentiate into a neuronal phenotype by replacing the medium with 5 ml N2 medium containing 10 ng/ml basic fibroblast growth factor and grown in T-25 flasks at 39° C. (26). […] After a specified interval, the medium was removed and the cells were washed with PBS, removed by gentle scraping, and collected by centrifugation at 1000 rpm for 5 min.
These differentiate to have a neuronal phenotype when induced by basic fibroblast growth factor in N2 medium (26) and express a normal complement of neuronal proteins, including PKC.
Both the initial PKC activation and subsequent downregulation have been previously described and were confirmed by measurement of PKC activity in membrane and cytosol.

[5] = test system: dendritic spines; experiment: dendritic spines of rats trained in a spatial maze task; assay type: in vivo, rat
Description: On retention day 2, confocal microscopy and […] were used to study filopodia and dendritic spines: mushroom, thin and stubby spines (Panel A).

[6] = target: T1, PKCα (Rattus norvegicus, UniProt P05696); assay type: cell-based
T1 construct: from tissue; host or cells: acute hippocampal slices

[7] = single dose 0.28 nM for 30 minutes

CCC/C=C/C=C/C(=O)O[C@H]1/C(=C/C(=O)OC)C[C@H]2C[C@H]([C@@H](C)O)OC(=O)C[C@H](O)C[C@@H]3C[C@H](OC(C)=O)C(C)(C)[C@](O)(C[C@@H]4C/C(=C/C(=O)OC)C[C@H](/C=C/C(C)(C)[C@]1(O)O2)O4)O3 [bryostatin, bryostatin-1]
sAPP secretion [1]: dramatic increase of sAPP secretion | memory retention ([2]; 2 TE plus bryostatin 0.25 ng/ml for 4 h during and after training, minutes without): lasting hours | memory retention ([2]; 4 TEs plus bryostatin 0.25 ng/ml for 4 h): > 24 h | retention ([2]; 20 h pre-exposure 0.25 ng/ml, 4-paired TE, at 48 h): persisted | time by which retention was gone ([2]; 20 hr exposure 0.25 ng/ml, 2-paired TE): ≤ 48 h | concentration that inhibited acquisition and behavioral retention ([2]; all training conditions tested): greater than 1.0 ng/ml | memory after 2, 4, or 6 training trials ([2]; low doses (0.1-0.25 ng/ml)): markedly enhanced memory | conditioned response ([2]; randomized presentations of light and rotation): no conditioned response | time after which behavioral retention was lost ([2]; single 4 h exposure 0.25 ng/ml alone, 2-paired TEs 24 hrs later): ≤ 24 h | concentrations that augment acquisition and memory retention ([2]; sub-optimal (4 TE) training): < 0.50 ng/mL | long-term retention (LTR) post-training ([2]; three successive days of 4-h exposure 0.25 ng/ml, 2-TEs one day later): ≥ 96 h | long-term retention ([2]; two successive days of 4-h exposure 0.25 ng/ml, 2-paired TEs): at least 6 days | PKC activity, cytosol fraction ([3]; 0.28 nM, 4 hour exposures, 10 minutes and 24 hours after the second of two exposures): significantly increased over baseline levels | PKC activity, membrane fraction ([3]; 24 hours after the second of two exposures): significantly increased over baseline | PKC activity, cytoplasmic fraction ([4]; exposed twice within a 2-hour period): significant reduction | membrane-bound PKC downregulation ([4]; second 30-minute exposure after a 2- to 4-hour delay): eliminated the significant downregulation | PKC activity, cytoplasmic fraction ([4]; second exposure 4 hours after the first): increased above baseline | membrane-bound PKC after the brief translocation [4, 7]: prolonged downregulation | translocation of PKC from the cytosol to the particulate fraction [4, 7]: approx 60% | PKC activity, cytoplasmic fraction ([4]; within the first 4 hours after exposure): no significant alteration | filopodia or thin spines ([5]; all conditions): no changes | number of stubby spines ([5]; bryostatin alone (without training)): augmented | total numbers of filopodia and (all shape) spines ([5]; only bryostatin): similarly increased | water-maze-induced increase in number of mushroom spines ([5]; retention day 2, training plus bryostatin): enhanced | increase in total numbers of filopodia and spines ([5]; water maze rats also treated with bryostatin): enhanced | activation of PKCα [6]: stimulates translocation to the plasma membrane; also recorded: selectively activated
